Key:
SV40-Luc = SV40-Luc control luciferase reporter assay, SV 5A8 cell line (SV40-Luc and SV40-R-Luc), control for non-specific inhibitors; assay type: cell-based, human; conditions: SV 5A8 cells derived from SW480, 24 hours of incubation with compound, ratio Firefly/Renilla luciferase
How it was run: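 SW480-derived lines with integrated reporters: SV 5A8 (SV40 firefly plus SV40 Renilla), Tcf 33.13 and Tcf 22C11 (Tcf-4 firefly plus SV40 Renilla). Cells seeded 1×10^4/well, compounds added 20-24 h later at titrated concentrations (final DMSO 0.316%) for 24 h. Firefly/Renilla ratio, as % of control, gave IC50 (nM).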

β-catenin/Tcf-4 = test: cells; assay type: cell-based; conditions: 24 hours of incubation with compound, ratio Firefly/Renilla luciferase
How it was run: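 SW480-derived lines with integrated reporters (Tcf-4-driven firefly luciferase; SV40 firefly as specificity control; SV40 Renilla for cell number/toxicity), treated 24 hours with titrated compounds, final 0.316% DMSO. Dual-luciferase read-out; firefly/Renilla ratio as % of control, duplicate plates, IC50 (nM) from curve fit.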

[1] = Homo sapiens, SW480, 24 h, Tcf 33.13 cells derived from SW480
[2] = Homo sapiens, Tcf22C11, 24 h, Tcf 22C11 cells derived from SW480

SMILES	IC50 (SV40-Luc; Homo sapiens, SV5A8, 24 h)	IC50 (β-catenin/Tcf-4; [1])	IC50 (β-catenin/Tcf-4; [2])	IC50 (SV40-Luc)	IC50 (β-catenin/Tcf-4; Tcf 22C11 cells derived from SW480)	IC50 (β-catenin/Tcf-4; Tcf 33.13 cells derived from SW480)
Cc1ccc2c(NCc3ccc(NC(=O)C4CCN(Cc5cccc(F)c5)CC4)cc3)nc(N(C)C)nc2c1 [Example 261, N-[4-({[2-(dimethylamino)-7-methylquinazolin-4-yl]amino}methyl)phenyl]-1-(3-fluorobenzyl)piperidine-4-carboxamide]	> 4170 nM	328 nM	347 nM			
CN(C)c1nc(NCc2ccc(NC(=O)c3ccc(Cl)nc3)cc2)c2ccccc2n1 [Example 128, 6-chloro-N-[4-({[2-(dimethylamino)quinazolin-4-yl]amino}methyl)phenyl]nicotinamide]	> 23100 nM	708 nM	1130 nM			
Cc1ccc2nc(NCc3ccco3)nc(NCc3ccc(NC(=O)C4CCN(Cc5ccccc5)CC4)cc3)c2c1 [Example 81, 1-benzyl-N-{4-[({2-[(2-furylmethyl)amino]-6-methylquinazolin-4-yl}amino)methyl]phenyl}piperidine-4-carboxamide]	> 17800 nM	> 8920 nM	> 8920 nM			
C/C=C\c1ccc2c(NCc3ccc(NC(=O)c4ccc(F)cc4)cc3)nc(N(C)C)nc2c1 [Example 97, N-{4-[({2-(dimethylamino)-7-[(1Z)-prop-1-en-1-yl]quinazolin-4-yl}amino)methyl]phenyl}-4-fluorobenzamide]	> 2560 nM	599 nM	499 nM			
Cc1ccc2c(NCc3ccc(NC(=O)C4CCN(Cc5c(F)cc(F)cc5F)CC4)cc3)nc(N(C)C)nc2c1 [Example 260, N-[4-({[2-(dimethylamino)-7-methylquinazolin-4-yl]amino}methyl)phenyl]-1-(2,4,6-trifluorobenzyl)piperidine-4-carboxamide]	> 7870 nM	203 nM	215 nM			
Cc1ccc2c(NCc3ccc(NC(=O)c4ccc(C)nc4)cc3)nc(N(C)C)nc2c1 [Example 241, N-[4-({[2-(dimethylamino)-7-methylquinazolin-4-yl]amino}methyl)phenyl]-6-methylnicotinamide]	> 23400 nM	813 nM	1030 nM			
O=C(Nc1ccc(CNc2nc(NC3CCCCC3)nc3ccccc23)cc1)c1ccc(F)cc1 [Example 125, N-[4-({[2-(cyclohexylamino)quinazolin-4-yl]amino}methyl)phenyl]-4-fluorobenzamide]	> 1330 nM	364 nM	1580 nM			
CN(C)c1nc(NCc2ccc(NC(=O)c3ccc(F)cc3)cc2)c2ccc(C3CC3)cc2n1 [Example 104, N-[4-({[7-cyclopropyl-2-(dimethylamino)quinazolin-4-yl]amino}methyl)phenyl]-4-fluorobenzamide]	> 2540 nM	666 nM	1010 nM			
O=C(Nc1ccc(CNc2nc(N3CCN(c4ncccn4)CC3)nc3ccc(C(F)(F)F)cc23)cc1)c1ccc(Cl)cc1 [Example 164, 4-chloro-N-[4-({[2-(4-pyrimidin-2-ylpiperazin-1-yl)-6-(trifluoromethyl)quinazolin-4-yl]amino}methyl)phenyl]benzamide]	> 8080 nM	4310 nM	5190 nM			
Cc1ccc2c(NCc3ccc(NC(=O)C4CCN(Cc5ncc[nH]5)CC4)cc3)nc(N(C)C)nc2c1 [Example 248, N-[4-({[2-(dimethylamino)-7-methylquinazolin-4-yl]amino}methyl)phenyl]-1-(1H-imidazol-2-ylmethyl)piperidine-4-carboxamide]	> 20100 nM	> 20100 nM	> 20100 nM			
O=C(Nc1ccc(CNc2nc(NCc3ccco3)nc3ccc(C(F)(F)F)cc23)cc1)c1ccc(Cl)cc1 [Example 168, 4-chloro-N-[4-({[2-[(2-furylmethyl)amino]-6-(trifluoromethyl)quinazolin-4-yl]amino}methyl)phenyl]benzamide]	> 9060 nM	1280 nM	2810 nM			
O=C(Nc1ccc(CNc2nc(NC3CCC3)nc3ccc(C(F)(F)F)cc23)cc1)C1CCN(Cc2ccc(F)cc2)CC1 [Example 159, N-[4-({[2-(cyclobutylamino)-6-(trifluoromethyl)quinazolin-4-yl]amino}methyl)phenyl]-1-(4-fluorobenzyl)piperidine-4-carboxamide]	> 8240 nM	> 8240 nM	> 8240 nM			
CCN(CC)c1nc(NCc2ccc(NC(=O)C3CCN(Cc4ccc(F)cc4)CC3)cc2)c2cc(C(F)(F)F)ccc2n1 [Example 158, N-[4-({[2-(diethylamino)-6-(trifluoromethyl)quinazolin-4-yl]amino}methyl)phenyl]-1-(4-fluorobenzyl)piperidine-4-carboxamide]	> 8210 nM	3850 nM	> 4110 nM			

The remaining lines, values ahead:

IC50 (SV40-Luc; Homo sapiens, SV5A8, 24 h)	IC50 (β-catenin/Tcf-4; [1])	IC50 (β-catenin/Tcf-4; [2])	IC50 (SV40-Luc)	IC50 (β-catenin/Tcf-4; Tcf 22C11 cells derived from SW480)	IC50 (β-catenin/Tcf-4; Tcf 33.13 cells derived from SW480)	SMILES
> 11000 nM	2930 nM	5850 nM				O=C(Nc1ccc(CNc2nc(N3CCCCC3)nc3ccccc23)cc1)c1ccc(F)cc1 [Example 123, 4-fluoro-N-(4-{[(2-piperidin-1-ylquinazolin-4-yl)amino]methyl}phenyl)benzamide]
> 2730 nM	396 nM	558 nM				CCN(CC)c1nc(NCc2ccc(NC(=O)c3ccc(F)cc3)cc2)c2ccc(C)cc2n1 [Example 211, N-[4-({[2-(diethylamino)-7-methylquinazolin-4-yl]amino}methyl)phenyl]-4-fluorobenzamide]
> 7880 nM	650 nM	918 nM				Cc1ccc2c(NCc3ccc(NC(=O)c4ccc(F)cc4)cc3)nc(N(C)CCc3ccccn3)nc2c1 [Example 222, 4-fluoro-N-{4-[({7-methyl-2-[methyl(2-pyridin-2-ylethyl)amino]quinazolin-4-yl}amino)methyl]phenyl}benzamide]
> 5200 nM	1250 nM	1570 nM				CNc1nc(NCc2ccc(NC(=O)C3CCN(Cc4ccccc4)CC3)cc2)c2ccccc2n1 [Example 147, 1-benzyl-N-[4-({[2-(methylamino)quinazolin-4-yl]amino}methyl)phenyl]piperidine-4-carboxamide]
> 9470 nM	5430 nM	9640 nM				CCN(CC)c1nc(NCc2ccc(NC(=O)c3ccc(Cl)cc3)cc2)c2cc(C(F)(F)F)ccc2n1 [Example 165, 4-chloro-N-[4-({[2-(diethylamino)-6-(trifluoromethyl)quinazolin-4-yl]amino}methyl)phenyl]benzamide]
> 1270 nM	193 nM	204 nM				Cc1ccc2c(NCc3ccc(NC(=O)c4ccc(Br)cc4)cc3)nc(N(C)C)nc2c1 [Example 239, 4-bromo-N-[4-({[2-(dimethylamino)-7-methylquinazolin-4-yl]amino}methyl)phenyl]benzamide]
> 9820 nM	393 nM	551 nM				C=Cc1ccc2c(N[C@@H](C)c3ccc(NC(=O)c4ccc(Cl)nc4)cc3)nc(N(C)C)nc2c1 [Example 106, 6-chloro-N-[4-((1S)-1-{[2-(dimethylamino)-7-vinylquinazolin-4-yl]amino}ethyl)phenyl]nicotinamide]
> 4470 nM	456 nM	534 nM				CN(C)c1nc(NCc2ccc(NC(=O)c3ccc(Cl)nc3)cc2)c2cc(I)ccc2n1 [Example 72, 6-chloro-N-[4-({[2-(dimethylamino)-6-iodoquinazolin-4-yl]amino}methyl)phenyl]nicotinamide]
> 3010 nM	588 nM	942 nM				CCNc1nc(NCc2ccc(NC(=O)c3ccc(F)cc3)cc2)c2ccccc2n1 [Example 118, N-[4-({[2-(ethylamino)quinazolin-4-yl]amino}methyl)phenyl]-4-fluorobenzamide]
> 21900 nM	4480 nM	7170 nM				O=C(Nc1ccc(CNc2nc(N3CCOCC3)nc3ccccc23)cc1)c1ccc(F)cc1 [Example 117, 4-fluoro-N-(4-{[(2-morpholin-4-ylquinazolin-4-yl)amino]methyl}phenyl)benzamide]
> 8620 nM	1320 nM	1420 nM				Cc1ccc2c(NCc3ccc(NC(=O)C4CCN(Cc5ccccc5)CC4)cc3)nc(N(C)CCCN(C)C)nc2c1 [Example 140, 1-benzyl-N-{4-[({2-[[3-(dimethylamino)propyl](methyl)amino]-7-methylquinazolin-4-yl}amino)methyl]phenyl}-piperidine-4-carboxamide]
			> 9510 nM	6990 nM	6550 nM	O=C(Nc1ccc(CNc2nc(N3CCCC3)nc3ccc(C(F)(F)F)cc23)cc1)c1ccc(Cl)cc1 [Example 163]
> 8840 nM	1440 nM	2270 nM				Cc1ccc2c(NCc3ccc(NC(=O)C4CCN(Cc5ccccc5)CC4)cc3)nc(N(C)CCN(C)C)nc2c1 [Example 144, 1-benzyl-N-{4-[({2-[[2-(dimethylamino)ethyl](methyl)amino]-7-methylquinazolin-4-yl}amino)methyl]phenyl}piperidine-4-carboxamide]
> 22000 nM	> 22000 nM	> 22000 nM				Cc1ccc2nc(N3CCCC3)nc(NCc3ccc(NC(=O)c4ccc(F)cc4)cc3)c2c1 [Example 44, N-(4-((2-(1-azacyclopentyl)-6-methylquinazolin-4-ylamino)methyl)phenyl)-4-fluorobenzamide]
